Read-outs that look alike come from different tables or passages of the source.

Series [1] deals with guinea pig hearts isolated and perfused by the Langendorff method. The series is described as follows: left-ventricular pressure and heart rate in isolated perfused Langendorff hearts. As to conditions: for Emax: Cavia porcellus; for EC20 left-ventricular pressure: dose which leads to a 20% increase in left ventricular pressure. The source says: After the animals have been sacrificed by a blow to the neck and exsanguination through the carotid arteries, the thoracic cavity is opened, and the aorta is exposed and looped up with a thread. A cannula, which is attached by tubing to the apparatus from which the nutrient solution slowly drops, is introduced in the direction of the heart and the heart is, quickly after removal from the thorax, connected to the perfusion apparatus. A balloon probe, connected to a Statham pressure sensor, is advanced through a cut through the left atrium into the left ventricle, and is provided with an initial pressure of 40 mm Hg. […] The nutrient solution flowing freely from the coronary sinus into the right atrium is measured with a flow […]) and, together with the change in the left-ventricular pressure and the heart rate determined from this, is recorded on a Watanabe recorder. The substances are administered in a volume of 0.1 ml of nutrient solution, in the dosage indicated in Tab.

In series [2] the test system is left ventricles of cats. The series is described as follows: heart function dP/dtmax, left ventricle of anesthetized cats. It counts as in vivo, cat. As to conditions: for increase in the heart rate or end-diastolic ventricular pressure / positive inotropic effects (increase in dP/dtmax) compared with comparison compounds: result in words. The protocol: The effect of the substances on the contractility of the heart in cats was tested on animals (.male., .female., 3.2 to 5.2 kg) under anesthesia with chloralose/urethane. The change in pressure in the left ventricle of the heart was measured with a tip catheter introduced through the right carotid artery, the R peak in the ECG (bipolar chest lead) initiating a signal to record the end-diastolic pressure; in addition, the maximum rate of pressure rise (dP/dtmax) was determined from the change in pressure. The heart rate was derived from the pressure waves. The test substances were administered intravenously. 2-6 animals were used per measurement, and the arithmetic mean was calculated from the results.

Series [3] has as its system right ventricle of guinea pigs. The series is described as follows: heart function dP/dtmax, right ventricle of anesthetized guinea pigs. It counts as in vivo, guinea pig. As for the experimental part: The effect of the substances on the contractility of the heart of guinea pigs is tested on animals (.male., 400 to 1000 g) under urethane anesthesia. The change in pressure in the right ventricle of the heart is measured with a tip catheter introduced through the right jugular vein and the maximum rate of pressure rise (dP/dtmax) is determined from this. The heart rate is derived from the pressure waves. […] The test substances were administered intravenously. 5-7 animals were used for each measurement, and the arithmetic mean was calculated from the results.

For series [4], the system named is electrically stimulated left atrium of rats. The series can be described thus: positive inotropic action on electrically stimulated left atrium in vitro. More on the design: species or system rat. Particulars: for [EC40 pot.] theophylline / [EC40 pot.] substance: Column E, left atrium; for EC40: Rattus norvegicus, Column B, negative logarithm of EC40pot in mol/l, 40% increase in contraction force, read-out: -lg[EC40 pot.] left atrium (converted).
Experimental: The positive inotropic action was tested in vitro on the electrically stimulated left atrium of rats (l.a.).
The positive inotropic action of the compounds was tested in vitro on the electrically stimulated left atrium of rats.
Isometric contractions (HSE force sensor K-30; Watanabe recorder, Linear Corder Mark 5) of isolated, left atria from rats (.male., 250-300 g) in an organ bath (10 ml, Tyrode nutrient solution, 31° C., gassing with carbogen, initial tension of the organs 0.25 g) under electrical stimulation (HSE stimulator, 7 V, 3 ms, 2 Hz) were recorded. […] The particular increase in the contraction force is expressed in % of the starting value before administration of the substance. The concentration of the test substance which potentiates the contraction force of the atrium by 40% compared with the starting value [EC40pot. mol/l], expressed by the negative logarithm of the [EC40pot mol/l]: -lg[EC40pot ] serves as a measure of the cardiotonic activity.

In series [5] the test system is chain of tracheal rings of guinea pigs. The series can be described thus: relaxing action on chain of tracheal rings in vitro (bronchospasmolytic action). More on the design: species or system guinea pig. As to conditions: for EC50: Cavia porcellus, Column A, negative logarithm of EC50 in mol/l, 50% of maximum relaxation by (-)isoprenaline, read-out: -lg[EC50] trachea (converted); for [EC40 pot.] left atrium / [EC50] trachea: Column C, measure of organ-selective activity; for [EC50] theophylline / [EC50] substance: Column D, trachea.

[6] abbreviates: 0.3 μmol/kg i.v., 0-10 min (Maximum).
Where [7] appears, read: 1 μmol/kg i.v., 0-10 min (Maximum).
The mark [8] stands for this setting: 3 μmol/kg i.v., 0-10 min (Maximum).
Setting [9] is: after 1000 nMol, read-out: Emax left-ventricular pressure.
The mark [10] stands for this setting: at Emax, 1000 nMol, read-out: Percentage increase in heart rate at Emax.

A word on the Emax: it is the size of the effect at its maximum, as opposed to the concentration needed. `Nc1cc(-c2ccncc2)c[nH]c1=O` [Amrinone, amrinone, reference compound]: the Emax came out at 35% in series [1] (after 3000 nMol, read-out: Emax left-ventricular pressure) and 8% in series [1] (at Emax, 3000 nMol, read-out: Percentage increase in heart rate at Emax). In addition, in series [1], the “Percentage increase in heart rate at EC20” value (shortened to “Percentage increase”) turned out to be 7%. The same molecule registered an EC20 left-ventricular pressure in series [1] of 1410 nmol. In addition, the “Percentage change in dP/dtmax” value in series [2] (1 μmol/kg i.v., 3 min) is reported as 17%; in series [2] (1 μmol/kg i.v., 10 min), 6%; in series [2] (1 μmol/kg i.v., 30 min) it was 7%; in series [2] (1 μmol/kg i.v., 60 min), 23%; in series [2] (3 μmol/kg i.v., 3 min), 52%; in series [2] (3 μmol/kg i.v., 10 min), 42%. Besides, the “Percentage change in dP/dtmax” value amounted to 40% in series [2] (3 μmol/kg i.v., 30 min); 43% in series [2] (3 μmol/kg i.v., 60 min); 70% in series [2] (10 μmol/kg i.v., 3 min); 67% in series [2] (10 μmol/kg i.v., 10 min); 59% in series [2] (10 μmol/kg i.v., 30 min); 55% in series [2] (10 μmol/kg i.v., 60 min). For the same molecule, the “Percentage change in dP/dtmax” value is on record as 33% in series [3] (setting [6]); 8% in series [3] (0.3 μmol/kg i.v., 10 min); 13% in series [3] (0.3 μmol/kg i.v., 30 min); 40% in series [3] (setting [7]); 21% in series [3] (1 μmol/kg i.v., 10 min); 15% in series [3] (1 μmol/kg i.v., 30 min). Moreover, the “Percentage change in dP/dtmax” value is recorded as 66% in series [3] (setting [8]); 13% in series [3] (3 μmol/kg i.v., 10 min); 20% in series [3] (3 μmol/kg i.v., 30 min); 101% in series [3] (10 μmol/kg i.v., 0-10 min (Maximum)); 39% in series [3] (10 μmol/kg i.v., 10 min); 29% in series [3] (10 μmol/kg i.v., 30 min). The “Percentage change in dP/dtmax” value in series [3] (30 μmol/kg i.v., 0-10 min (Maximum)) was determined as 141%; in series [3] (30 μmol/kg i.v., 10 min) it was 78%; in series [3] (30 μmol/kg i.v., 30 min) it was 69%.
One may read the EC50 as the concentration giving half of the maximal effect. Take `CCOc1ccc(-c2ccc(=O)[nH]n2)cc1OC` [Serial No. 4, 6-(4-ethoxy-3-methoxyphenyl)-3[2H]pyridazinone]: the Emax was 58% in series [1] (after 300 nMol, read-out: Emax left-ventricular pressure) and 27% in series [1] (at Emax, 300 nMol, read-out: Percentage increase in heart rate at Emax). For the same molecule, the “Percentage increase” value in series [1] amounted to 6%. Also, in series [1], the EC20 left-ventricular pressure stood at 22 nmol. Besides, the “[EC40 pot.] theophylline / [EC40 pot.] substance” value in series [4] turned out to be 109. The EC40 in series [4] is 3800 nM. Further, in series [5], the EC50 is 1320 nM. For the same molecule, the “[EC40 pot.] left atrium / [EC50] trachea” value in series [5] came to 2.9. The “[EC50] theophylline / [EC50] substance” value in series [5] came out at 102. The “Percentage change in dP/dtmax” value turned out to be 39% in series [3] (setting [6]); 12% in series [3] (0.3 μmol/kg i.v., 10 min); 23% in series [3] (0.3 μmol/kg i.v., 30 min); 140% in series [3] (setting [7]); 26% in series [3] (1 μmol/kg i.v., 10 min); 56% in series [3] (1 μmol/kg i.v., 30 min). In addition, the “Percentage change in dP/dtmax” value in series [3] (setting [8]) came out at 95%; in series [3] (3 μmol/kg i.v., 10 min), 66%; in series [3] (3 μmol/kg i.v., 30 min), 59%.
With `COc1ccc(-c2ccc(=S)[nH]n2)cc1OC(C)C` [compound 17], in series [4], the “[EC40 pot.] theophylline / [EC40 pot.] substance” value was found to be 151 and the EC40 is 2750 nM. For the same molecule, in series [5], the EC50 was 7240 nM, the “[EC40 pot.] left atrium / [EC50] trachea” value is given as 0.4 and the “[EC50] theophylline / [EC50] substance” value stood at 18.6.
For `CCOc1cc(-c2ccc(=S)[nH]n2)ccc1OC` [compound 14], in series [4], the “[EC40 pot.] theophylline / [EC40 pot.] substance” value was found to be 200 and the EC40 is 2090 nM. Also, in series [5], the EC50 was 1410 nM, the “[EC40 pot.] left atrium / [EC50] trachea” value came to 1.5 and the “[EC50] theophylline / [EC50] substance” value is listed as 95.5.
In the case of `Cn1c(=O)c2[nH]cnc2n(C)c1=O.NCCN` [Theophylline-ethylenediamine, theophylline-ethylenediamine, reference compound], the “Percentage change in dP/dtmax” value came to 8% in series [2] (3 μmol/kg i.v., 3 min); 2% in series [2] (3 μmol/kg i.v., 10 min); 2% in series [2] (3 μmol/kg i.v., 30 min); 1% in series [2] (3 μmol/kg i.v., 60 min); 62% in series [2] (10 μmol/kg i.v., 3 min); 30% in series [2] (10 μmol/kg i.v., 10 min). Moreover, the “Percentage change in dP/dtmax” value is recorded as 22% in series [2] (10 μmol/kg i.v., 30 min) and 26% in series [2] (10 μmol/kg i.v., 60 min).
In the case of `CCC(C)Oc1ccc(-c2ccc(=O)[nH]n2)cc1OC` (centres unmarked) [Serial No. 7, 6-(4-sec.-butoxy-3-methoxyphenyl)-3[2H]pyridazinone], the Emax in series [1] (setting [9]) turned out to be 86%; in series [1] (setting [10]) it was 23%. Moreover, in series [1], the “Percentage increase” value amounted to 3%. In series [1], the EC20 left-ventricular pressure was 13 nmol. For the same molecule, the “Percentage change in dP/dtmax” value in series [2] (0.3 μmol/kg i.v., 3 min) is given as 36%; in series [2] (0.3 μmol/kg i.v., 10 min) it was 4%; in series [2] (0.3 μmol/kg i.v., 30 min), 1%; in series [2] (0.3 μmol/kg i.v., 60 min), 2%; in series [2] (1 μmol/kg i.v., 3 min), 90%; in series [2] (1 μmol/kg i.v., 10 min) it was 25%. The “Percentage change in dP/dtmax” value in series [2] (1 μmol/kg i.v., 30 min) was found to be 11%; in series [2] (1 μmol/kg i.v., 60 min), 11%. In addition, the “increase in the heart rate or end-diastolic ventricular pressure” value in series [2] was “without leading to any considerable increase in the heart rate or end-diastolic ventricular pressure”. For the same molecule, the “positive inotropic effects (increase in dP/dtmax) compared with comparison compounds” value in series [2] is “stronger positive inotropic effects”. For the same molecule, in series [4], the “[EC40 pot.] theophylline / [EC40 pot.] substance” value was 120. The EC40 in series [4] was 3470 nM. For the same molecule, in series [5], the EC50 was 1320 nM. The “[EC40 pot.] left atrium / [EC50] trachea” value in series [5] was 2.6. Further, in series [5], the “[EC50] theophylline / [EC50] substance” value was determined as 102.
`C=CCOc1ccc(-c2ccc(=O)[nH]n2)cc1OC` [Serial No. 5, 6-(4-allyloxy-3-methoxyphenyl)-3[2H]pyridazinone]: the results for the Emax in series [1] (setting [9]) and in series [1] (setting [10]) were 185% and 9%, respectively. Besides, the “Percentage increase” value in series [1] came to 3%. Besides, the EC20 left-ventricular pressure in series [1] was determined as 14 nmol. Further, the “Percentage change in dP/dtmax” value is recorded as 27% in series [2] (0.3 μmol/kg i.v., 3 min); 12% in series [2] (0.3 μmol/kg i.v., 10 min); 11% in series [2] (0.3 μmol/kg i.v., 30 min); 13% in series [2] (0.3 μmol/kg i.v., 60 min); 64% in series [2] (1 μmol/kg i.v., 3 min); 25% in series [2] (1 μmol/kg i.v., 10 min). For the same molecule, the “Percentage change in dP/dtmax” value in series [2] (1 μmol/kg i.v., 30 min) came to 15%; in series [2] (1 μmol/kg i.v., 60 min), 20%. Moreover, the “increase in the heart rate or end-diastolic ventricular pressure” value in series [2] was “without leading to any considerable increase in the heart rate or end-diastolic ventricular pressure”. Further, the “positive inotropic effects (increase in dP/dtmax) compared with comparison compounds” value in series [2] is given as “stronger positive inotropic effects”. In series [4], the “[EC40 pot.] theophylline / [EC40 pot.] substance” value came to 63.1. In addition, in series [4], the EC40 is 6610 nM. Also, the EC50 in series [5] is 1510 nM. Besides, in series [5], the “[EC40 pot.] left atrium / [EC50] trachea” value was 4.4. The “[EC50] theophylline / [EC50] substance” value in series [5] stood at 85.2.
For the molecule `COc1ccc(-c2ccc(=S)[nH]n2)cc1OCC(C)C` [compound 18], in series [4], the “[EC40 pot.] theophylline / [EC40 pot.] substance” value amounted to 166 and the EC40 was 1580 nM. For the same molecule, in series [5], the EC50 was 4070 nM, the “[EC40 pot.] left atrium / [EC50] trachea” value stood at 0.6 and the “[EC50] theophylline / [EC50] substance” value is listed as 33.1.

These data come from patent publication US4707481A, “Pyridazinones, their preparation and use, and bronchospasmolytic medicaments containing pyridazinones” (BYK Gulden Lomberg Chemische Fabrik GmbH, priority 1983, dated 1987).
